Assay results taken from patent publication US11059820B2, “Crystalline forms of seletalisib” (UCB BIOPHARMA SPRL, priority 2017, dated 2021).

Legend:
Assay type in all cases: physicochemical
[1] = Thermodynamic stability: crystals suspended for 30 days in solvent/water mixtures of desired water activity
Description: (§1) The thermodynamic stability was checked by suspending crystals of Form B for 30 days in appropriate solvent/water mixtures, thus creating environments with the desired water activity. As water activity is equivalent to relative humidity (e.g. 60% RH=water activity 0.6), and due to the more rapid exchange of molecules between the crystals and the saturated solution in the suspension, this approach gives the possibility to observe the equilibrium condition of the solid form. […] Kinetic stability was checked by exposing solid, powdery samples to air at selected temperature and relative humidity.
(§2) The thermodynamic stability was checked by suspending crystals of Form F for 30 days in appropriate solvent/water mixtures, as explained above for Form B crystals.

[2] = Dynamic Vapor Sorption (DVS); details: 25° C.
Method: Two different types of DVS equipment were used, where the sample weight uptake is plotted against the relative humidity over the sample: • SMS DVS controlled by the software DVS Win. The sample temperature is maintained at 25° C. The weight change of the sample as a function of % RH (relative humidity expressed as a percentage) was monitored by the microbalance. The sample was placed on a glass pan attached to the microbalance. A moisture cycle was performed from 30 to 90 to 0 to 30% RH at 25° C. (dm/dt 0.002 with a scanning step 10%). • Projekt Messtechnik Sorptions Prüfsystem SPS 11-100n or Surface Measurement Systems DVS-1; the sample was placed on an aluminium (SPS 11) or platinum (DVS-1) holder on top of the microbalance and conditioned at 25% RH and 25° C. A moisture cycle was performed from 25 to 95 to 0 to 25% RH at 5% RH per hour at 25° C.

[3] = Kinetic stability: solid, powdery samples exposed to air at selected temperature and relative humidity; details: 7 weeks, solid powder exposed to air
Description: as §1, §2

thermodynamic stability under ICH conditions ([1]; 25° C./60% RH) | thermodynamic stability under ICH conditions ([1]; 40° C./75% RH) | limited water uptake ([2]; observed from 70% RH onwards) [%] | hygroscopic behaviour (DVS) ([2]; variable relative humidity) | thermodynamic stability under ICH conditions ([1]; 25° C./60% RH, (Hydrate)) | thermodynamic stability under ICH conditions ([1]; 40° C./75% RH, (Hydrate)) | kinetic stability ([3]; 25° C./60% RH) | kinetic stability ([3]; 40° C./75% RH) | continuous water uptake ([2]; from 25% RH to 95% RH) [% weight] | stepwise mass loss ([2]; second part of the cycle (95% RH to 0% RH), at low RH) [% weight] | stepwise water uptake ([2]; third part of the cycle (0% RH to 25% RH)) [%] | SMILES
not to be thermodynamically stable | not to be thermodynamically stable | 1 | non-hygroscopic |  |  |  |  |  |  |  | [O-][n+]1cccc(-c2nc3c(Cl)cccc3cc2[C@@H](Nc2ncnc3cccnc23)C(F)(F)F)c1 [Form F, N-{(R)-1-[8-Chloro-2-(1-oxypyridin-3-yl)quinolin-3-yl]-2,2,2-trifluoroethyl}pyrido[3,2-d]pyrimidin-4-ylamine, Crystal Form F]
 |  |  |  | thermodynamically stable | thermodynamically stable | kinetically stable | kinetically stable | ~2.4 | 3.3 | 3.6 | [O-][n+]1cccc(-c2nc3c(Cl)cccc3cc2[C@@H](Nc2ncnc3cccnc23)C(F)(F)F)c1 [Form B, N-{(R)-1-[8-Chloro-2-(1-oxypyridin-3-yl)quinolin-3-yl]-2,2,2-trifluoroethyl}pyrido[3,2-d]pyrimidin-4-ylamine, Crystal Form B (Hydrate)]
